Numbered stars: 1 amine (or outer) side, 2 acyl side, 3 side chain; on linkers, the order of the positions; unused ones are H or OH. Bridge positions count the residues as written; N and C are the ends. Square brackets hold non-standard residues; d marks the D form. Peptide text beside a SMILES is read from it. X4 = CC(C)c1cccc2c(C[C@H](N[*:1])C(=O)[*:2])c[nH]c12; Trp(7-Me) = Cc1cccc2c(C[C@H](N)C(=O)O)c[nH]c12; Trp(1-Me) = Cn1cc(C[C@H](N)C(=O)O)c2ccccc21; Abu(4-yl) = O=C([C@H](CC[*:3])N[*:1])[*:2]; 2Nal = N[C@@H](Cc1ccc2ccccc2c1)C(=O)O; AEF = NCCOc1ccc(C[C@H](N)C(=O)O)cc1; Cit = NC(=O)NCCC[C@H](N)C(=O)O; Pen = CC(C)(S)[C@H](N)C(=O)O; αMeK = C[C@](N)(CCCCN)C(=O)O; βAla = NCCC(=O)O
Key:
in vitro [1] = format: in vitro ADME; design: half-life: dose or concentration left out as unconfirmed; conditions: simulated intestinal fluid (SIF) with pancreatin, pH 6.8, 37° C., § matrix is 100 fold dilution of standard SIF concentration, read-out: SIF t½ (converted)
Protocol: SIF was prepared by adding 6.8 g of monobasic potassium phosphate and 10.0 g of pancreatin to 1.0 L of water. After dissolution, the pH was adjusted to 6.8 using NaOH. DMSO stocks (2 mM) were first prepared for the test compounds. Aliquots of the DMSO solutions were dosed into 6 individual tubes, each containing 0.5 mL of SIF, which is pre-warmed to 37° C. The final test compound concentration was 20 M. The vials were kept in a benchtop Thermomixer® for the duration of the experiment. At each timepoint (0, 5, 10, 20, 40, 60, or 360 minutes or 24 hours), 1.0 mL of acetonitrile containing 1% formic acid was added to one vial to terminate the reaction. Samples were stored at 4° C. until the end of the experiment. After the final timepoint is sampled, the tubes were mixed and then centrifuged at 3,000 rpm for 10 minutes. Aliquots of the supernatant were removed, diluted 1:1 into distilled water containing internal standard, and analyzed by LCMS/MS. Percent remaining at each timepoint was calculated based on the peak area response ratio of test to compound to internal standard. Time 0 was set to 100%, and all later timepoints were calculated relative to time 0. Half-lives were calculated by fitting to a first-order exponential decay equation using Graphpad.

in vitro [2] = conditions: cynomolgus monkey, 20% fecal homogenate (supernatant), anaerobic, pH 6.8
Protocol: Fecal homogenate (20%) was prepared by adding 4 mL of growth medium (1 liter contains 2 g peptone water powder, 2 g yeast extract, 0.1 g NaCl, 0.04 g KH2PO4, 0.01 g CaCl2·6H2O, 0.01 g MgSO4·7H2O, 2 mL Tween 80, 0.5 g bile salts, 0.5 g L-cysteine HCl, 2 g NaHCO3, and 10 μL Vitamin K, pH adjusted to 6.8, and sterilized by filtration through a 0.22 μm filter) to every gram of feces (pooled freshly collected human or cynomolgus monkey feces). The suspension was vortexed to break up large clumps, and homogenized using a bead mill homogenizer. Centrifuged the homogenate at 2800×g for 15 min. The supernatant is taken out and used for incubations. DMSO stocks (10 mM) were first prepared for the test compounds. Incubations were performed in an anaerobic chamber conditioned at 37° C. Aliquots of the DMSO solutions were dosed into 1.0 mL aliquots of 20% fecal homogenate, which are pre-warmed to 37° C. The final test compound concentration was 20 μM. At each timepoint (0, 20 min, 1, 3, 6, or 24 hours), 100 μL aliquot of each incubation mixture is taken out and added to separate tubes containing 300 μL of 50% acetonitrile/50% methanol and an internal standard to terminate the reaction. Samples were taken out of the anaerobic chamber and stored at 4° C. until the end of the experiment. After the final timepoint is sampled, the tubes were mixed and then centrifuged at 3,000 rpm for 10 minutes. Aliquots of the supernatant were removed, diluted 1:1 into distilled water containing 0.1% formic acid, and analyzed by LC/MS/MS. Percent remaining at each timepoint was calculated based on the peak area response ratio of test to compound to internal standard. Time 0 was set to 100%, and all later timepoints were calculated relative to time 0. Half-lives were calculated by fitting to a first-order exponential decay equation using Graphpad or Excel.

IL-23R = target: T1, IL-23R (Homo sapiens, UniProt Q5VWK5); experiment: DB cells IL23R pSTAT3 cell assay (pStat3 HTRF); format: cell-based; conditions: Table E3; DB cells, IL-23 0.5 nM, 30 minutes at 37° C.; read-out: pStat3 HTRF (IC50)
T1 sequence (Q5VWK5 24-629): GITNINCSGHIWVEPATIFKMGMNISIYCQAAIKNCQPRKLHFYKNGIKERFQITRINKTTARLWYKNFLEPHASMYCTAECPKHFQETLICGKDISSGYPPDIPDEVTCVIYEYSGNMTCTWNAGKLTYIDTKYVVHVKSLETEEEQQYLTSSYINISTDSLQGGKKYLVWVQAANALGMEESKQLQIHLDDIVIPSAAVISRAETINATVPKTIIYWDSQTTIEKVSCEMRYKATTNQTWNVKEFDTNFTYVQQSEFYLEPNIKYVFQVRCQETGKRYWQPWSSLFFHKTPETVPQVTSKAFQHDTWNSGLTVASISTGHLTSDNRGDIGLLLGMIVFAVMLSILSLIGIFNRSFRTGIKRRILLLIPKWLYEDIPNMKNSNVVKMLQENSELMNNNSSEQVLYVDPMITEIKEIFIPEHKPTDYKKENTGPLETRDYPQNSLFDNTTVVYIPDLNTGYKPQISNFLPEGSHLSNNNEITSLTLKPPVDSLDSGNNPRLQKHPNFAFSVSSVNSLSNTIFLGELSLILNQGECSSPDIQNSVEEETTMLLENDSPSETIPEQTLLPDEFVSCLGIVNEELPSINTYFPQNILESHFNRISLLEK
Method in brief: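 HTRF readout of lysate pSTAT3 (Tyr705) after two-plate processing. Peptide dilution series co-incubated with IL-23 (0.5 nM final) on 5×10E5 IL-23R-expressing DB cells per well, 30 min, 37 °C.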

in vitro [3] = conditions: human, 20% fecal homogenate (supernatant), anaerobic, pH 6.8
in vitro [4] = conditions: both, SD, rat, plasma (EDTA)

Row | SMILES | half-life (in vitro [1]) | half-life at 20 μM (in vitro [2]) | IC50 (IL-23R) | half-life at 20 μM (in vitro [3]) | half-life at 20 μM (in vitro [4])
1 | CC(=O)N[C@H]1CCSC[C@@H](C(=O)N[C@@H](Cc2ccc(OCCN)cc2)C(=O)N[C@@H](Cc2ccc3ccccc3c2)C(=O)NC2(C(=O)N[C@@H](CCC(=O)O)C(=O)N[C@@H](CC(N)=O)C(=O)NCCC(N)=O)CCOCC2)NC(=O)[C@H](CCC(N)=O)NC(=O)[C@H](Cc2c[nH]c3c(C)cccc23)NC(=O)[C@H]([C@@H](C)O)NC(=O)[C@H](CCC(N)=O)NC1=O [compound 204] | 19 h | 5 h | 1 to 10 nM | 1 h | –
2 | CC(=O)NCCCC[C@@H]1NC(=O)[C@H](Cc2c[nH]c3c(C)cccc23)NC(=O)[C@H]([C@@H](C)O)NC(=O)[C@H](CC(N)=O)NC(=O)[C@@H](NC(C)=O)C(C)(C)SSC(C)(C)[C@@H](C(=O)N[C@@H](Cc2ccc(OCCN)cc2)C(=O)N[C@@H](Cc2ccc3ccccc3c2)C(=O)N[C@@](C)(CCCCN)C(=O)N[C@@H](CCCCNC(C)=O)C(=O)N[C@@H](CC(N)=O)C(=O)N[C@@H](CCCNC(=N)N)C(N)=O)NC1=O [compound 243] | < 1 h | – | 1 to 10 nM | 1 h | 21 h
3 | CC(=O)NCCCC[C@H](NC(=O)[C@](C)(CCCCN)NC(=O)[C@H](Cc1ccc2ccccc2c1)NC(=O)[C@H](Cc1ccc(OCCN)cc1)NC(=O)[C@H]1NC(=O)[C@H](CCCNC(N)=O)NC(=O)[C@H](Cc2c[nH]c3c(C)cccc23)NC(=O)[C@H]([C@@H](C)O)NC(=O)[C@H](CC(N)=O)NC(=O)[C@@H](NC(C)=O)C(C)(C)SSC1(C)C)C(=O)N[C@@H](CC(N)=O)C(=O)N[C@@H](CO)C(N)=O [compound 260] (Ac-[Pen]NT[Trp(7-Me)][Cit][Pen][AEF][2Nal][αMeK]K(Ac)NS-NH2; disulfide 1-6) | – | 3 h | < 1 nM | 15 h | > 24 h
4 | CC(=O)NCCCC[C@H](NC(=O)[C@](C)(CCCCN)NC(=O)[C@H](Cc1ccc2ccccc2c1)NC(=O)[C@H](Cc1ccc(OCCN)cc1)NC(=O)[C@H]1NC(=O)[C@H](CCCNC(N)=O)NC(=O)[C@H](Cc2c[nH]c3c(C)cccc23)NC(=O)[C@H]([C@@H](C)O)NC(=O)[C@H](CC(N)=O)NC(=O)[C@@H](NC(C)=O)C(C)(C)SSC1(C)C)C(=O)N[C@@H](CC(N)=O)C(=O)N[C@H](C(N)=O)[C@@H](C)O [compound 262] (Ac-[Pen]NT[Trp(7-Me)][Cit][Pen][AEF][2Nal][αMeK]K(Ac)NT-NH2; disulfide 1-6) | – | 3 h | 1 to 10 nM | 15 h | > 24 h
5 | CC(=O)NCCCC[C@H](NC(=O)[C@](C)(CCCCN)NC(=O)[C@H](Cc1ccc2ccccc2c1)NC(=O)[C@H](Cc1ccc(OCCN)cc1)NC(=O)[C@H]1NC(=O)[C@H](CCCNC(N)=O)NC(=O)[C@H](Cc2c[nH]c3c(C)cccc23)NC(=O)[C@H]([C@@H](C)O)NC(=O)[C@H](CC(N)=O)NC(=O)[C@@H](NC(C)=O)C(C)(C)SSC1(C)C)C(=O)N[C@@H](CC(N)=O)C(=O)N[C@@H](Cc1ccc(O)cc1)C(N)=O [compound 266] (Ac-[Pen]NT[Trp(7-Me)][Cit][Pen][AEF][2Nal][αMeK]K(Ac)NY-NH2; disulfide 1-6) | – | 7 h | 1 to 10 nM | 16 h | > 24 h
6 | CC(=O)NCCCC[C@H](NC(=O)[C@](C)(CCCCN)NC(=O)[C@H](Cc1ccc2ccccc2c1)NC(=O)[C@H](Cc1ccc(OCCN)cc1)NC(=O)[C@H]1NC(=O)[C@H](CCC(N)=O)NC(=O)[C@H](Cc2c[nH]c3c(C)cccc23)NC(=O)[C@H]([C@@H](C)O)NC(=O)[C@H](CC(N)=O)NC(=O)[C@@H](NC(C)=O)C(C)(C)SSC1(C)C)C(=O)N[C@@H](CC(C)C)C(=O)NCCC(N)=O [compound 269] | – | > 24 h | 1 to 10 nM | > 24 h | > 24 h
7 | CC(=O)NCCCC[C@@H]1NC(=O)[C@H](Cc2c[nH]c3c(C)cccc23)NC(=O)[C@H]([C@@H](C)O)NC(=O)[C@H](CC(N)=O)NC(=O)[C@@H](NC(C)=O)C(C)(C)SSC(C)(C)[C@@H](C(=O)N[C@@H](Cc2ccc(OCCN)cc2)C(=O)N[C@@H](Cc2ccc3ccccc3c2)C(=O)N[C@@](C)(CCCCN)C(=O)N[C@@H](CCCCNC(C)=O)C(=O)NCCC(=O)NCCC(N)=O)NC1=O [compound 270] | – | > 24 h | 1 to 10 nM | > 24 h | > 24 h
8 | CC(=O)NCCCC[C@H](NC(=O)[C@](C)(CCCCN)NC(=O)[C@H](Cc1cn(C)c2ccccc12)NC(=O)[C@H](Cc1ccc(OCCN)cc1)NC(=O)[C@H]1NC(=O)[C@H](CCC(N)=O)NC(=O)[C@H](Cc2c[nH]c3c(C)cccc23)NC(=O)[C@H]([C@@H](C)O)NC(=O)[C@H](CC(N)=O)NC(=O)[C@@H](NC(C)=O)C(C)(C)SSC1(C)C)C(=O)N[C@@H](CC(N)=O)C(=O)NCCC(N)=O [compound 283] (Ac-[Pen]NT[Trp(7-Me)]Q[Pen][AEF][Trp(1-Me)][αMeK]K(Ac)N[βAla]-NH2; disulfide 1-6) | – | 17 h | 1 to 10 nM | > 24 h | > 24 h
9 | CC(=O)NCCCC[C@@H]1NC(=O)[C@H](Cc2c[nH]c3c(C(C)C)cccc23)NC(=O)[C@H]([C@@H](C)O)NC(=O)[C@H](CC(N)=O)NC(=O)[C@@H](NC(C)=O)C(C)(C)SSC(C)(C)[C@@H](C(=O)N[C@@H](Cc2ccc(OCCN)cc2)C(=O)N[C@@H](Cc2ccc3ccccc3c2)C(=O)N[C@@](C)(CCCCN)C(=O)N[C@@H](CCCCNC(C)=O)C(=O)N[C@@H](CC(N)=O)C(=O)N[C@H](CC(C)C)C(N)=O)NC1=O [compound 286] (Ac-[Pen]NT[X4]K(Ac)[Pen][AEF][2Nal][αMeK]K(Ac)N[dL]-NH2; disulfide 1-6) | – | > 24 h | 1 to 10 nM | > 24 h | > 24 h
10 | CC(=O)NCCCC[C@H](NC(=O)[C@](C)(CCCCN)NC(=O)[C@H](Cc1ccc2ccccc2c1)NC(=O)[C@H](Cc1ccc(OCCN)cc1)NC(=O)[C@H]1NC(=O)[C@H](CCCCNC(=O)CC(C)C)NC(=O)[C@H](Cc2c[nH]c3c(C)cccc23)NC(=O)[C@H]([C@@H](C)O)NC(=O)[C@H](CC(N)=O)NC(=O)[C@@H](NC(C)=O)C(C)(C)SSC1(C)C)C(=O)N[C@@H](CC(N)=O)C(=O)N[C@H](CC(C)C)C(N)=O [compound 315] | 9 h | – | 1 to 10 nM | – | –
11 | CC(=O)NCCCC[C@H](NC(=O)[C@](C)(CCCCN)NC(=O)[C@H](Cc1ccc2ccccc2c1)NC(=O)[C@H](Cc1ccc(OCCN)cc1)NC(=O)[C@H]1NC(=O)[C@H](CCCCNC(=O)C2CCCCC2)NC(=O)[C@H](Cc2c[nH]c3c(C)cccc23)NC(=O)[C@H]([C@@H](C)O)NC(=O)[C@H](CC(N)=O)NC(=O)[C@@H](NC(C)=O)C(C)(C)SSC1(C)C)C(=O)N[C@@H](CC(N)=O)C(=O)N[C@H](CC(C)C)C(N)=O [compound 316] | 7 h | – | 1 to 10 nM | – | –
12 | CC(=O)NCCCC[C@H](NC(=O)[C@](C)(CCCCN)NC(=O)[C@H](Cc1ccc2ccccc2c1)NC(=O)[C@H](Cc1ccc(OCCN)cc1)NC(=O)[C@H]1NC(=O)[C@H](CCCCNC(=O)CN)NC(=O)[C@H](Cc2c[nH]c3c(C)cccc23)NC(=O)[C@H]([C@@H](C)O)NC(=O)[C@H](CC(N)=O)NC(=O)[C@@H](NC(C)=O)C(C)(C)SSC1(C)C)C(=O)N[C@@H](CC(N)=O)C(=O)N[C@H](CC(C)C)C(N)=O [compound 320] | 12 h | – | < 1 nM | – | –
13 | CC(=O)NCCCC[C@H](NC(=O)[C@](C)(CCCCN)NC(=O)[C@H](Cc1ccc2ccccc2c1)NC(=O)[C@H](Cc1ccc(OCCN)cc1)NC(=O)[C@H]1NC(=O)[C@H](CCCCNC(=O)CCN)NC(=O)[C@H](Cc2c[nH]c3c(C)cccc23)NC(=O)[C@H]([C@@H](C)O)NC(=O)[C@H](CC(N)=O)NC(=O)[C@@H](NC(C)=O)C(C)(C)SSC1(C)C)C(=O)N[C@@H](CC(N)=O)C(=O)N[C@H](CC(C)C)C(N)=O [compound 321] | 3 h | – | 1 to 10 nM | – | –
14 | CC(=O)NCCCC[C@@H]1NC(=O)[C@H](Cc2c[nH]c3c(C)cccc23)NC(=O)[C@H]([C@@H](C)O)NC(=O)[C@H](CCC(N)=O)NC(=O)[C@@H](NC(=O)[C@@H](CCCNC(=N)N)NC(C)=O)CCSC[C@@H](C(=O)N[C@@H](Cc2ccc(OCCN)cc2)C(=O)N[C@@H](Cc2ccc3ccccc3c2)C(=O)N[C@@](C)(CCCCN)C(=O)N[C@@H](CCCCNC(C)=O)C(=O)N[C@@H](CC(N)=O)C(=O)N[C@H](CCCCN)C(N)=O)NC1=O [compound 324] (Ac-[dR][Abu(4-yl)]QT[Trp(7-Me)]K(Ac)C[AEF][2Nal][αMeK]K(Ac)N[dK]-NH2; thioether 2-7) | 1 h | – | 10 to 100 nM | – | –

— patent US20260116921A1, “PEPTIDE INHIBITORS OF INTERLEUKIN-23 RECEPTOR AND THEIR USE TO TREAT INFLAMMATORY DISEASES” (priority 2018, published 2026)
